Measurements as given in patent US10668067B2, “Pyridine sulfonamides” (AMGEN INC., priority 2016, dated 2020).

target: human Nav1.7 (Homo sapiens (Human), UniProt Q15858); experiment: Nav 1.7 In Vitro PX Assay (PatchXpress whole cell voltage clamp); assay type: cell-based; conditions: in-vitro Nav 1.7 PX data
Procedure: HEK 293 cells stably transfected with human Nav1.7 were recorded in whole cell voltage clamp mode with the PatchXpress automated electrophysiology system (Molecular Devices, LLC, Sunnyvale, Calif.). Compound effects were measured on a partially inactivated state of the sodium channel. Cells were clamped to a holding potential yielding 20 to 50% inactivation. To elicit sodium current, channels were activated by pulsing to −10 mV for 20 msec. This voltage protocol was repeated at a rate of 0.1 Hz throughout the experiment. A single concentration of test compound was applied to cells for a duration of 3 minutes. Peak sodium current was measured at the end of the compound addition period to determine percent inhibition. Three to five cells were tested per concentration, and IC50 curves were fitted to percent inhibition as a function of concentration.

human Nav1.7, sequence (Q15858 whole entry): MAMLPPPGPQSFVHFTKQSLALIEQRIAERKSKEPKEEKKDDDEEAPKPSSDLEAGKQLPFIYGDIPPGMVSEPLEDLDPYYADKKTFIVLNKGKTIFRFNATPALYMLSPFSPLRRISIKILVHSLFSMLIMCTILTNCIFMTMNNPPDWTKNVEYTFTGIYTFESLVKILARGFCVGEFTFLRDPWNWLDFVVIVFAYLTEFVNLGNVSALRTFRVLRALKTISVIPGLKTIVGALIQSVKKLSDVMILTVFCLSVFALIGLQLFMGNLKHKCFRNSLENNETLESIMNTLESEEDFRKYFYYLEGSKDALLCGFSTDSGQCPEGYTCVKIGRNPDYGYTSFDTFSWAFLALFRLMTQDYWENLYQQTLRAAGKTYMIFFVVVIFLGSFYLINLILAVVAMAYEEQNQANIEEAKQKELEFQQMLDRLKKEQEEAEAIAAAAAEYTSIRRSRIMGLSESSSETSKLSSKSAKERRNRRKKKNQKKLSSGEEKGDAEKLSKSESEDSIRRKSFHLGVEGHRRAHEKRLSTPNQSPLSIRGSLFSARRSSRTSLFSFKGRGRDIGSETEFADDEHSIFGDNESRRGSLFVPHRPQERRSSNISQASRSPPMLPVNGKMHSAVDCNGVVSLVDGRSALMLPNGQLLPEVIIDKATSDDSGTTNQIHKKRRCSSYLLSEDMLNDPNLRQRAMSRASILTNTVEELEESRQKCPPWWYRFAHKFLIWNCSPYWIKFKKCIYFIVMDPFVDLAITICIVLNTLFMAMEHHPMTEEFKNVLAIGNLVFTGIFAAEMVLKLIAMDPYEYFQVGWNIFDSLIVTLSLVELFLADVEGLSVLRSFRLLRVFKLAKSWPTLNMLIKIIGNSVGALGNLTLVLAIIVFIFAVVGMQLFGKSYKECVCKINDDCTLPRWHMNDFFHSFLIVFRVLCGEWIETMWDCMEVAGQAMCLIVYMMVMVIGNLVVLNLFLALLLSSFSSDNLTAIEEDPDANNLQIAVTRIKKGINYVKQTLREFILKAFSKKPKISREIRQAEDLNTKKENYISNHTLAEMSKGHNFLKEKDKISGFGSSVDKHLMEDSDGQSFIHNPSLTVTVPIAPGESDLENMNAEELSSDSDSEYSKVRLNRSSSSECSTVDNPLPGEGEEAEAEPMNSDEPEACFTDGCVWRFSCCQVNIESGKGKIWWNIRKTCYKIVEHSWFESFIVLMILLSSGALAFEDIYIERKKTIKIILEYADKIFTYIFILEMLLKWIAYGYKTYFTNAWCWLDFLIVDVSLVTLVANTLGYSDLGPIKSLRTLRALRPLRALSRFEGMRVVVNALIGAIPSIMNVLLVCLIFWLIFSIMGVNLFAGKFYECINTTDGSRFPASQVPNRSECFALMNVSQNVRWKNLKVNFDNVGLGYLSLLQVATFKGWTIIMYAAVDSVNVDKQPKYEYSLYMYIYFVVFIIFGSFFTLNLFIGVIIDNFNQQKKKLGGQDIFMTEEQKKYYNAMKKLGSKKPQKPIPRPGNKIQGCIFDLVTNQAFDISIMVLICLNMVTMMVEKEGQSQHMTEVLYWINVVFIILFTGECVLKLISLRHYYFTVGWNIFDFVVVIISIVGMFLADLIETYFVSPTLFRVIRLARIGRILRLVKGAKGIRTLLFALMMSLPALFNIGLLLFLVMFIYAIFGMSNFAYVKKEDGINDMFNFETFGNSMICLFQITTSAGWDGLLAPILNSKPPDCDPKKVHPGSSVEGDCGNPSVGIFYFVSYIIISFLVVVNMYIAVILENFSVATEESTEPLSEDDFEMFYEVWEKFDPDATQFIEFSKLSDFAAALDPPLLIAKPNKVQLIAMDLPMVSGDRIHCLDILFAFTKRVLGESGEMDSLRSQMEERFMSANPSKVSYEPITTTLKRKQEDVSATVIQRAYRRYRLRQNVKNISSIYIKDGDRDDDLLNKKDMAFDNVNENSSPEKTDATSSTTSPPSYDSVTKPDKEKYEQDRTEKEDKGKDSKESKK

IC50	Structure (SMILES)
12 nM	CNC(=O)N(c1ccc(S(=O)(=O)Nc2ccon2)cn1)c1cc(F)c(-c2ccc(F)c(C(F)(F)F)c2)cc1OC [Example 1-26, 6-((2,4′-difluoro-5-methoxy-3′-(trifluoromethyl)-4-biphenylyl)(methylcarbamoyl)amino)-N-3-isoxazolyl-3-pyridinesulfonamide]
20 nM	CNC(=O)N(c1ccc(S(=O)(=O)Nc2ccon2)cn1)c1cc(F)c(-c2ccc(F)c(OC(F)(F)F)c2)cc1OC [Example 1-27, 6-((2,4′-difluoro-5-methoxy-3′-(trifluoromethoxy)-4-biphenylyl)(methylcarbamoyl)amino)-N-3-isoxazolyl-3-pyridinesulfonamide]
16 nM	CNC(=O)N(c1ccc(S(=O)(=O)Nc2ccon2)cn1)c1cc(Cl)c(-c2cccc(C(F)(F)F)c2)cc1OC [Example 1-31, 6-((2-chloro-5-methoxy-3′-(trifluoromethyl)-4-biphenylyl)(methylcarbamoyl)amino)-N-3-isoxazolyl-3-pyridinesulfonamide]
185 nM	CNC(=O)N(c1ccc(S(=O)(=O)Nc2ccon2)cn1)c1cc(F)c(-c2ccc(Cl)c(OC)c2)cc1OC [Example 1-35, 6-((4′-chloro-2-fluoro-3′,5-dimethoxy-4-biphenylyl)(methylcarbamoyl)amino)-N-3-isoxazolyl-3-pyridinesulfonamide]
11 nM	CNC(=O)N(c1ccc(S(=O)(=O)Nc2ccon2)cn1)c1cc(Cl)c(-c2cc(OC)cc(C(F)(F)F)c2)cc1OC [Example 1-36, 6-((2-chloro-3′,5-dimethoxy-5′-(trifluoromethyl)-4-biphenylyl)(methylcarbamoyl)amino)-N-3-isoxazolyl-3-pyridinesulfonamide]
166 nM	CNC(=O)N(c1ccc(S(=O)(=O)Nc2ccon2)cn1)c1cc(Cl)c(-c2cc(Cl)cnc2OC)cc1OC [Example 1-41, 6-((5-chloro-4-(5-chloro-2-methoxy-3-pyridinyl)-2-methoxyphenyl)(methylcarbamoyl)amino)-N-3-isoxazolyl-3-pyridinesulfonamide]
29 nM	CNC(=O)N(c1ccc(S(=O)(=O)Nc2ccon2)cn1)c1cc(Cl)c(-c2cc(OC)nc(C(F)(F)F)c2)cc1OC [Example 1-42, 6-((5-chloro-2-methoxy-4-(2-methoxy-6-(trifluoromethyl)-4-pyridinyl)phenyl)(methylcarbamoyl)amino)-N-3-isoxazolyl-3-pyridinesulfonamide]
131 nM	CNC(=O)N(c1ccc(S(=O)(=O)Nc2ccon2)cn1)c1cc(Cl)c(-c2ccnc(C(F)(F)F)c2)cc1OC [Example 1-43, 6-((5-chloro-2-methoxy-4-(2-(trifluoromethyl)-4-pyridinyl)phenyl)(methylcarbamoyl)amino)-N-3-isoxazolyl-3-pyridinesulfonamide]
46 nM	CNC(=O)N(c1ccc(S(=O)(=O)Nc2ccon2)cn1)c1cc(Cl)c(-c2ccc(C(F)(F)F)c(OC)c2)cc1OC [Example 1-46, 6-((2-chloro-3′,5-dimethoxy-4′-(trifluoromethyl)-4-biphenylyl)(methylcarbamoyl)amino)-N-3-isoxazolyl-3-pyridinesulfonamide]
9 nM	CNC(=O)N(c1ccc(S(=O)(=O)Nc2ccon2)cn1)c1cc(Cl)c(-c2cc(OC)cc(OC(F)(F)F)c2)cc1OC [Example 1-51, 6-((2-chloro-3′,5-dimethoxy-5′-(trifluoromethoxy)-4-biphenylyl)(methylcarbamoyl)amino)-N-3-isoxazolyl-3-pyridinesulfonamide]
48 nM	CNC(=O)N(c1ccc(S(=O)(=O)Nc2ccon2)cn1)c1cc(Cl)c(-c2cc(Cl)cc(C#N)c2)cc1OC [Example 1-53, 6-((2,3′-dichloro-5′-cyano-5-methoxy-4-biphenylyl)(methylcarbamoyl)amino)-N-3-isoxazolyl-3-pyridinesulfonamide]

The remaining lines, values behind:

Structure (SMILES)	IC50
CNC(=O)N(c1ccc(S(=O)(=O)Nc2ccon2)cn1)c1cc(F)c(-c2cc(OC)c(F)c(OC)c2)cc1OC [Example 1-23, 6-((2,4′-difluoro-3′,5,5′-trimethoxy-4-biphenylyl)(methylcarbamoyl)amino)-N-3-isoxazolyl-3-pyridinesulfonamide]	151 nM
CNC(=O)N(c1ccc(S(=O)(=O)Nc2ccon2)cn1)c1cc(F)c(-c2cc(Cl)c(F)c(OC)c2)cc1OC [Example 1-25, 6-((3′-chloro-2,4′-difluoro-5,5′-dimethoxy-4-biphenylyl)(methylcarbamoyl)amino)-N-3-isoxazolyl-3-pyridinesulfonamide]	16 nM
CNC(=O)N(c1ccc(S(=O)(=O)Nc2ccon2)cn1)c1cc(Cl)c(-c2ccc(F)c(C)c2)cc1OC [Example 1-28, 6-((2-chloro-4′-fluoro-5-methoxy-3′-methyl-4-biphenylyl)(methylcarbamoyl)amino)-N-3-isoxazolyl-3-pyridinesulfonamide]	58 nM
CNC(=O)N(c1ccc(S(=O)(=O)Nc2ccon2)cn1)c1cc(Cl)c(-c2ccc(Cl)c(C)c2)cc1OC [Example 1-29, 6-((2,4′-dichloro-5-methoxy-3′-methyl-4-biphenylyl)(methylcarbamoyl)amino)-N-3-isoxazolyl-3-pyridinesulfonamide]	20 nM
CNC(=O)N(c1ccc(S(=O)(=O)Nc2ccon2)cn1)c1cc(Cl)c(-c2cc(Cl)cc(OC)c2)cc1OC [Example 1-32, 6-((2,3′-dichloro-5,5′-dimethoxy-4-biphenylyl)(methylcarbamoyl)amino)-N-3-isoxazolyl-3-pyridinesulfonamide]	14 nM
CNC(=O)N(c1ccc(S(=O)(=O)Nc2ccon2)cn1)c1cc(Cl)c(-c2ccc(Cl)c(OC)c2)cc1OC [Example 1-33, 6-((2,4′-dichloro-3′,5-dimethoxy-4-biphenylyl)(methylcarbamoyl)amino)-N-3-isoxazolyl-3-pyridinesulfonamide]	43 nM
CNC(=O)N(c1ccc(S(=O)(=O)Nc2ccon2)cn1)c1cc(Cl)c(-c2cc(Cl)ccc2C)cc1OC [Example 1-34, 6-((2,5′-dichloro-5-methoxy-2′-methyl-4-biphenylyl)(methylcarbamoyl)amino)-N-3-isoxazolyl-3-pyridinesulfonamide]	27 nM
CNC(=O)N(c1ccc(S(=O)(=O)Nc2ccon2)cn1)c1cc(Cl)c(-c2cccc(OCC(F)(F)F)c2)cc1OC [Example 1-37, 6-((2-chloro-5-methoxy-3′-(2,2,2-trifluoroethoxy)-4-biphenylyl)(methylcarbamoyl)amino)-N-3-isoxazolyl-3-pyridinesulfonamide]	11 nM
CNC(=O)N(c1ccc(S(=O)(=O)Nc2ccon2)cn1)c1cc(Cl)c(-c2cccc(C3CC3)c2)cc1OC [Example 1-38, 6-((2-chloro-3′-cyclopropyl-5-methoxy-4-biphenylyl)(methylcarbamoyl)amino)-N-3-isoxazolyl-3-pyridinesulfonamide]	21 nM
CNC(=O)N(c1ccc(S(=O)(=O)Nc2ccon2)cn1)c1cc(Cl)c(-c2cccc(OC(F)(F)F)c2)cc1OC [Example 1-39, 6-((2-chloro-5-methoxy-3′-(trifluoromethoxy)-4-biphenylyl)(methylcarbamoyl)amino)-N-3-isoxazolyl-3-pyridinesulfonamide]	11 nM
CNC(=O)N(c1ccc(S(=O)(=O)Nc2ccon2)cn1)c1cc(Cl)c(-c2cc(C(F)(F)F)cnc2OC)cc1OC [Example 1-40, 6-((5-chloro-2-methoxy-4-(2-methoxy-5-(trifluoromethyl)-3-pyridinyl)phenyl)(methylcarbamoyl)amino)-N-3-isoxazolyl-3-pyridinesulfonamide]	32 nM
CNC(=O)N(c1ccc(S(=O)(=O)Nc2ccon2)cn1)c1cc(Cl)c(-c2ccc(F)cc2)cc1OC [Example 1-44, 6-((2-chloro-4′-fluoro-5-methoxy-4-biphenylyl)(methylcarbamoyl)amino)-N-3-isoxazolyl-3-pyridinesulfonamide]	125 nM
CNC(=O)N(c1ccc(S(=O)(=O)Nc2ccon2)cn1)c1cc(Cl)c(-c2ccc(C(F)(F)F)cc2)cc1OC [Example 1-45, 6-((2-chloro-5-methoxy-4′-(trifluoromethyl)-4-biphenylyl)(methylcarbamoyl)amino)-N-3-isoxazolyl-3-pyridinesulfonamide]	65 nM
CNC(=O)N(c1ccc(S(=O)(=O)Nc2ccon2)cn1)c1cc(Cl)c(-c2cccc(OC(F)F)c2)cc1OC [Example 1-47, 6-((2-chloro-3′-(difluoromethoxy)-5-methoxy-4-biphenylyl)(methylcarbamoyl)amino)-N-3-isoxazolyl-3-pyridinesulfonamide]	72 nM
CNC(=O)N(c1ccc(S(=O)(=O)Nc2ccon2)cn1)c1cc(Cl)c(-c2cccc(OC(C)C)c2)cc1OC [Example 1-48, 6-((2-chloro-5-methoxy-3′-(1-methylethoxy)-4-biphenylyl)(methylcarbamoyl)amino)-N-3-isoxazolyl-3-pyridinesulfonamide]	71 nM
CNC(=O)N(c1ccc(S(=O)(=O)Nc2ccon2)cn1)c1cc(Cl)c(-c2cc(F)cc(C(F)(F)F)c2)cc1OC [Example 1-49, 6-((2-chloro-3′-fluoro-5-methoxy-5′-(trifluoromethyl)-4-biphenylyl)(methylcarbamoyl)amino)-N-3-isoxazolyl-3-pyridinesulfonamide]	28 nM
CNC(=O)N(c1ccc(S(=O)(=O)Nc2ccon2)cn1)c1cc(Cl)c(-c2cc(C)c(F)c(OC)c2)cc1OC [Example 1-50, 6-((2-chloro-4′-fluoro-3′,5-dimethoxy-5′-methyl-4-biphenylyl)(methylcarbamoyl)amino)-N-3-isoxazolyl-3-pyridinesulfonamide]	49 nM
CNC(=O)N(c1ccc(S(=O)(=O)Nc2ccon2)cn1)c1cc(Cl)c(-c2cc(F)c(F)c(F)c2)cc1OC [Example 1-52, 6-((2-chloro-3′,4′,5′-trifluoro-5-methoxy-4-biphenylyl)(methylcarbamoyl)amino)-N-3-isoxazolyl-3-pyridinesulfonamide]	31 nM
